For test [1], the target named is T1, rat liver 3-Hydroxy-3-methylglutary-Coenzyme A Reductase (Rattus norvegicus, UniProt P51639).
T1 construct: from tissue; host or cells: rat liver microsomes (solubilized, purified through second ammonium sulfate precipitation)
T1 sequence (P51639 1-887): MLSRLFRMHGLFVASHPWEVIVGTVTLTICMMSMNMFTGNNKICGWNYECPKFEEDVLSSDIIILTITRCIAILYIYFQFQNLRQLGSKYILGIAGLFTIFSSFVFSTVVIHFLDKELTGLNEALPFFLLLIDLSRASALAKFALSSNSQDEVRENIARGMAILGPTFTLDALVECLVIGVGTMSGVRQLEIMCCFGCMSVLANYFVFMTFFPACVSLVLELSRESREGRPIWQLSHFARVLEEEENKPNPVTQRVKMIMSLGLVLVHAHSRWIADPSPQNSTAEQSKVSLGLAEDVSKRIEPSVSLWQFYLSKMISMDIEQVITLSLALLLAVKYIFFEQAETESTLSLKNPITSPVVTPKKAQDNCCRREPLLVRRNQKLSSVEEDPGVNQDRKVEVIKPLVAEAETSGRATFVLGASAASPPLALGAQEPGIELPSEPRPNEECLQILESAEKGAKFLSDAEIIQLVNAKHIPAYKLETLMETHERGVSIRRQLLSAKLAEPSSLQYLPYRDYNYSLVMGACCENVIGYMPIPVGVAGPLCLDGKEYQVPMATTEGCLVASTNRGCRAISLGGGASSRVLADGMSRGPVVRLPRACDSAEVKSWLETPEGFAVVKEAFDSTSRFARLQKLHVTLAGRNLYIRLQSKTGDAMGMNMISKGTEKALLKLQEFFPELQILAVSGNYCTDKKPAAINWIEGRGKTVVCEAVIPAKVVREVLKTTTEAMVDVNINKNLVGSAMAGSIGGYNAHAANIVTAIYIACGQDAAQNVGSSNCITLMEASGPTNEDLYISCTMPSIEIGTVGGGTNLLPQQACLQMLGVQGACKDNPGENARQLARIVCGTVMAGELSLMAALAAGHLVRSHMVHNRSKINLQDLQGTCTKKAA
Nature of the test: Assay for rat liver 3-Hydroxy-3-methylglutary-Coenzyme A Reductase Activity (in vitro). The test is classed as biochemical. Particulars: enzyme solubilized from rat liver microsomes, pH 7.4, 37° C., 20 minutes. As to the method: (1) Test 1 [Assay for rat liver 3-Hydroxy-3-methylglutary-Coenzyme A Reductase Activity (in vitro)]
Five μl or an enzyme solution, solubilized from rat liver microsomes and purified through the second ammonium sulfate precipitation step, is added to 35 μl of a reaction mixture containing 1.11 kBg(=0.03 μCi) or 3-hydroxy-3-metyhl [3-^14 C] glutary coenzyme A, 100 mM potassium phosphate buffer, pH 7.4, 10 mM ethylenediaminetetraacetic acid (EDTA), 10 mM dithiothreitol with or without the graded concentrations of the test compound. The reaction is started by addition of 10 μl of 25 mM β-nicotinamide adenine dinucleotide phosphate, reduced form (NADPH). The mixture is incubated at 37° C. for 20 minutes. The reaction is terminated by addition of 10 μl of 2N hydrochloric acid. After an additional incubation for 15 minutes at 37° C., a 20 μl aliquot of the mixture is applied to a Silica Gel 60 F-254 plate (made by Merck & Co., Inc.). The chromatograms are developed in benzene/acetone (1:1). Sections of the thin layer plates where the mevalonolactone is located are scraped and the radioactivity are counted.

Test [2] has as its system Sterol Synthesis. Nature of the test: Assay for Sterol Synthesis in Rats (in vivo). Also on record: species or system Male SD rats. Particulars: dose 10.0 mg/kg, oral intubation, [1-^14 C] acetate i.p. 1 hour after compound, blood after 50 minutes. As to the method:
(2) Test 2 [Assay for Sterol Synthesis in Rats (in vivo)]
Male SD rats are administered the test compound by oral intubation. One hour after compound administration, the rats are injected intraperitoneally with sodium [1-^14 C] acetate at 3.7 MBq/kg (=100 μCi/kg). After 50 minutes, 2.5 ml of blood samples are taken by cardiac puncture under short-term ether anesthesia. The plasma, obtained by centrifugation, is hydrolyzed and nonsaponifiable lipids are extracted with the petroleum ether. Sterols are isolated from these extracts as digitonide, dissolved in 1ml of methanol and the radioactivity is counted.

Each structure is given as a SMILES string.

Consider `COc1cc(F)ccc1-c1c(/C=C/[C@@H](O)C[C@@H](O)CC(=O)O)n2c3c(cccc13)CCC2(C)C` (relative stereo) [Compound A], for which, in test [1], half-maximal inhibition (IC50) was put at 0.0535 µM. The “Inhibition (%)” value in test [2] came out at 95.7%.
In turn, `COc1cc(F)ccc1-c1c(/C=C/C(O)CC(O)CC(=O)O)n2c3c(cccc13)CCC2(C)C` (single isomer, unassigned) [Compound B, sodium (+)-erythro-(E)-7-[5,6-dihydro-4,4-dimethyl-1-(4-fluoro-2-methoxyphenyl)-4H-pyrrolo[3,2,1-ij]quinolin-2-yl]-3,5-dihydroxyhept-6-enoate] had an IC50 in test [1] of 0.0257 µM.

The values are drawn from patent US5164400A, “Pyrroloquinoline compounds” (Fujisawa Pharmaceutical Co., Ltd., priority 1989, dated 1992).
